Reference: the supplement of paper PMC10307832

The cell lines below were run with CN1CCC(CC1)OC2=CC(=C(C=C2)NC3=NC=C4C(=N3)N(C(=O)N4C)C5CCCC5)OC [AZ3146] + COc1cc2c(Oc3ccc(NC(=O)C4(C(=O)Nc5ccc(F)cc5)CC4)cc3F)ccnc2cc1OCCCN1CCOCC1 [Foretinib] (partner 0.25 µM) (assay: relative viability (nuclei count vs DMSO), 5 days (fraction); higher = more cells survive). Conditions: first compound 0.08 µM.
Outline: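 A single step with final 0.05% Triton X-100, 1% formaldehyde and 1 ug/ml Hoechst fixed the cells and stained nuclei 5 days after treatment. Lung cancer cell lines in 1536-well plates had been treated by pin tool the day after seeding with one drug alone or a fixed anchor-drug dose plus five library-drug doses (not always all listed) in √10 steps, and nuclei were counted on 4× images. Relative viability is the ratio of nuclei in treated wells to nuclei in vehicle wells, taken as the median of duplicate plates.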
Work on NCI-H1623 yielded a relative viability of 0.797.
PC-14 was tested, and the relative viability was 0.891.
Work on NCI-H1666 yielded a relative viability of 0.964.
EKVX showed a relative viability of 0.798.
In the case of NCI-H1755, the relative viability is reported as 0.917.
Cell Line NCI-H2023 has a relative viability of 0.783.
For HCC-78, the relative viability was 0.51.
Work on SK-LU-1 yielded a relative viability of 0.803.
PC-3 [JPC-3] gave a relative viability of 0.927.
LOU-NH91 showed a relative viability of 0.967.
With NCI-H647 the relative viability was 1.01.
NCI-H23 gave a relative viability of 1.02.
NCI-H2126 gave a relative viability of 0.911.
ChaGo-K-1 was tested, and the relative viability was 0.93.
Cell Line NCI-H1734 has a relative viability of 0.811.
With NCI-H650 the relative viability was 0.812.
LK-2 was tested, and the relative viability was 0.934.
NCI-H2228 gave a relative viability of 0.736.
In the case of NCI-H2342, the relative viability is reported as 0.928.
NCI-H1944 gave a relative viability of 0.664.
With HARA the relative viability was 0.823.
In the case of Calu-6, the relative viability is reported as 0.792.
COR-L23 gave a relative viability of 0.979.
LCLC-103H gave a relative viability of 0.749.
With EBC-1 the relative viability was 0.112.
Cell Line NCI-H358 has a relative viability of 0.608.
For A549, the relative viability was 1.08.
Work on SW 900 yielded a relative viability of 0.899.
With NCI-H1299 the relative viability was 1.06.
In the case of IA-LM, the relative viability is reported as 1.21.
NCI-H661 was tested, and the relative viability was 0.98.
Work on NCI-H1703 yielded a relative viability of 0.285.
NCI-H1563 gave a relative viability of 0.901.
With ABC-1 the relative viability was 0.98.
NCI-H727 gave a relative viability of 0.952.

Same assay, conditions: first compound 0.253 µM
NCI-H1623 showed a relative viability of 0.757.
With PC-14 the relative viability was 0.9.
NCI-H1666 was tested, and the relative viability was 0.994.
EKVX was tested, and the relative viability was 0.753.
NCI-H1755 showed a relative viability of 0.935.
With NCI-H2023 the relative viability was 0.788.
HCC-78 showed a relative viability of 0.547.
For SK-LU-1, the relative viability was 0.867.
In the case of PC-3 [JPC-3], the relative viability is reported as 1.02.
LOU-NH91 showed a relative viability of 0.902.
Work on NCI-H647 yielded a relative viability of 1.21.
In the case of NCI-H23, the relative viability is reported as 1.08.
EPLC-272H was tested, and the relative viability was 0.784.
NCI-H2126 showed a relative viability of 1.31.
Cell Line ChaGo-K-1 has a relative viability of 0.823.
NCI-H1734 gave a relative viability of 0.859.
Cell Line NCI-H650 has a relative viability of 0.996.
Cell Line LK-2 has a relative viability of 1.21.
Work on NCI-H2228 yielded a relative viability of 0.743.
Cell Line NCI-H2342 has a relative viability of 1.03.
With NCI-H1944 the relative viability was 0.88.
HARA was tested, and the relative viability was 0.858.
Calu-6 was tested, and the relative viability was 0.996.
COR-L23 was tested, and the relative viability was 1.08.
In the case of LCLC-103H, the relative viability is reported as 0.81.
EBC-1 showed a relative viability of 0.0981.
For NCI-H358, the relative viability was 0.637.
A549 gave a relative viability of 0.952.
Work on SW 900 yielded a relative viability of 0.761.
With NCI-H1299 the relative viability was 1.1.
IA-LM was tested, and the relative viability was 1.36.
NCI-H661 showed a relative viability of 1.03.
For NCI-H1703, the relative viability was 0.351.
NCI-H1563 showed a relative viability of 1.07.
With ABC-1 the relative viability was 1.01.
In the case of NCI-H727, the relative viability is reported as 0.967.

Same assay, conditions: first compound 0.8 µM
For NCI-H1623, the relative viability was 0.855.
PC-14 was tested, and the relative viability was 0.969.
NCI-H1666 was tested, and the relative viability was 1.02.
For EKVX, the relative viability was 0.735.
NCI-H1755 was tested, and the relative viability was 0.859.
Cell Line NCI-H2023 has a relative viability of 0.774.
Work on HCC-78 yielded a relative viability of 0.534.
SK-LU-1 showed a relative viability of 0.804.
Cell Line PC-3 [JPC-3] has a relative viability of 1.03.
For LOU-NH91, the relative viability was 1.01.
NCI-H647 gave a relative viability of 0.857.
With NCI-H23 the relative viability was 1.19.
EPLC-272H showed a relative viability of 0.629.
Work on NCI-H2126 yielded a relative viability of 1.04.
Work on ChaGo-K-1 yielded a relative viability of 0.872.
In the case of NCI-H1734, the relative viability is reported as 0.885.
Cell Line NCI-H650 has a relative viability of 0.961.
For LK-2, the relative viability was 1.7.
NCI-H2228 was tested, and the relative viability was 0.736.
With NCI-H2342 the relative viability was 1.16.
Work on NCI-H1944 yielded a relative viability of 0.985.
For HARA, the relative viability was 0.895.
With Calu-6 the relative viability was 0.891.
In the case of COR-L23, the relative viability is reported as 0.877.
For LCLC-103H, the relative viability was 0.749.
EBC-1 showed a relative viability of 0.119.
With NCI-H358 the relative viability was 0.554.
For A549, the relative viability was 0.743.
Cell Line SW 900 has a relative viability of 0.811.
Cell Line NCI-H1299 has a relative viability of 1.07.
With IA-LM the relative viability was 1.33.
Work on NCI-H661 yielded a relative viability of 0.97.
NCI-H1703 gave a relative viability of 0.329.
Cell Line NCI-H1563 has a relative viability of 0.903.
ABC-1 gave a relative viability of 1.29.
Work on NCI-H727 yielded a relative viability of 0.975.

Same assay, conditions: first compound 2.53 µM
With NCI-H1623 the relative viability was 0.955.
For PC-14, the relative viability was 1.02.
With NCI-H1666 the relative viability was 1.05.
Cell Line EKVX has a relative viability of 0.869.
In the case of NCI-H1755, the relative viability is reported as 0.915.
NCI-H2023 was tested, and the relative viability was 0.949.
In the case of HCC-78, the relative viability is reported as 0.601.
In the case of SK-LU-1, the relative viability is reported as 0.897.
Work on PC-3 [JPC-3] yielded a relative viability of 1.14.
LOU-NH91 gave a relative viability of 0.931.
In the case of NCI-H647, the relative viability is reported as 1.16.
NCI-H23 gave a relative viability of 1.01.
EPLC-272H showed a relative viability of 0.732.
NCI-H2126 was tested, and the relative viability was 1.25.
Cell Line ChaGo-K-1 has a relative viability of 0.923.
Cell Line NCI-H1734 has a relative viability of 0.853.
NCI-H650 gave a relative viability of 1.03.
Work on LK-2 yielded a relative viability of 1.46.
Cell Line NCI-H2228 has a relative viability of 0.88.
NCI-H2342 was tested, and the relative viability was 1.01.
With NCI-H1944 the relative viability was 0.943.
HARA showed a relative viability of 0.895.
Calu-6 showed a relative viability of 0.792.
COR-L23 gave a relative viability of 0.987.
LCLC-103H showed a relative viability of 0.966.
With EBC-1 the relative viability was 0.111.
NCI-H358 was tested, and the relative viability was 0.504.
Cell Line A549 has a relative viability of 0.177.
Cell Line SW 900 has a relative viability of 0.893.
Work on NCI-H1299 yielded a relative viability of 1.12.
Work on IA-LM yielded a relative viability of 1.08.
Work on NCI-H661 yielded a relative viability of 0.982.
NCI-H1703 gave a relative viability of 0.343.
NCI-H1563 gave a relative viability of 0.901.
ABC-1 was tested, and the relative viability was 1.1.
NCI-H727 gave a relative viability of 0.981.

Same assay, conditions: first compound 8 µM
Cell Line NCI-H1623 has a relative viability of 0.899.
Cell Line PC-14 has a relative viability of 1.02.
With NCI-H1666 the relative viability was 0.839.
EKVX gave a relative viability of 0.788.
In the case of NCI-H1755, the relative viability is reported as 0.97.
NCI-H2023 showed a relative viability of 0.227.
With HCC-78 the relative viability was 0.58.
SK-LU-1 was tested, and the relative viability was 0.528.
